# Test results as given in paper PMC5997364, “OG716: Designing a fit-for-purpose lantibiotic for the treatment of Clostridium difficile infections” (PLoS ONE, 2018).
# Values joined by “and” are separate entries in the source; they are usually repeats but may differ in a detail not shown here. Equal values may be shown once. Read-outs that look alike come from different tables or passages of the source. Ends that are not written are not given here.
# Columns and labels:
# [1] = design: method as in earlier work; details: cited from earlier work
# C. difficile [2] = test system: C. difficile; design: method as in PMID 20974818; details: cited from earlier work
# C. difficile UNT103-1 = experiment: Golden Syrian hamster model of CDAD, oral gavage efficacy; type: in vivo
# Protocol: In vivo efficacy was performed as previously described in detail, except that the compounds were administered via oral gavage (rather than the illeal cannulation method used previously). This study was carried out in accordance with protocols 2016–0015 approved by the Institutional Animal Care and Use Committee (IACUC) at the University of North Texas Health Science Center (UNTHSC). IACUC established guidelines ensuring that approved protocols are in compliance with federal and state laws regarding animal care and use activity at UNTHSC. The UNTHSC animal program in USDA registered (74-R0081) and fully AAALAC accredited.
# Briefly, 7–8 weeks old Male Golden Syrian hamsters were used in this study, and weighted 100–120 g (Charles River Laboratories, Wilmington, MA). C. difficile UNT103-1 (VA11, non epidemic (cdtB-, REA group J) was received from Curtis Donskey, Cleveland VA Hospital, Cleveland, OH) and cultured as previously described. The isolate has been previously utilized for the hamster model by the University of North Texas Health Sciences Center (UNTHSC). The infection inoculum was tested to determine the ratio of spores to vegetative cells. In accordance with the details in Table 2, a total of 60 animals were used in this study. Animals were randomized into the 10 study groups (N = 6 per group) prior to treatment. On Day 0, animals were infected with 5.63 x 10^7 total CFU of which 2.81 x 10^4 represented inoculated spores. On Day 1, at 24 hrs post-infection, all animals received a single subcutaneous injection of clindamycin (10 mg/kg). Test articles in 5% mannitol were then administered orally 3x per day (TID), starting on Day 2 at 18 hours after clindamycin injection, for 5 consecutive days (Days 2 through 6). USP-grade vancomycin (positive control) was prepared in water for injection (WFI) at 50 mg/mL and stored refrigerated during the course of the study. […] Data was analyzed using GraphPad Prism 6.0d. […]
# C. difficile [3] = experiment: microbe, parasite or virus in culture; type: cell-based, Clostridium difficile
# Protocol: MIC testing for C. difficile was performed by Eurofins Panlabs Taiwan LTD based on modifications from the CLSI M11-A8 broth dilution method for Bacteroides fragilis susceptibility testing. Briefly, Reinforced Clostridial Medium (RCM) was pre-reduced by over-night incubation in an anaerobic chamber (80% N2, 10% CO2, and 10% H2) prior to use. MU1140 and variants were dissolved in 100% DMSO, diluted by 2-fold serial dilution in 100% DMSO, for a total of 11 concentrations. A 4 μL aliquot of each dilution was added to 96 μL RCM in wells of a 96 well plate using a Biomek FX instrument (Beckman Coulter, USA), followed by the addition of C. difficile suspension, in RCM, 100 μL/well. The final bacterial count was 2 x 10^5 to 1 x 10^6 colony forming units/mL, in 200 μL per assay well. […] Assay plates were incubated at 35°C for 46 to 48 hr in the anaerobic chamber (A35 Anaerobic Workstation, Don Whitley, UK). Following incubation, test plates were visually examined and each well was scored for growth then the MIC was recorded as the lowest concentration that results in complete inhibition of growth. Each test substance was evaluated in duplicate. Vehicle-control and vancomycin were used as blank and positive controls, respectively. The MIC values of the vancomycin controls were consistent with the historical data against test strains (data not shown).
# [4] = Solubility 5% D-mannitol, 5% D-mannitol in water, visual assessment
# Protocol: (§1) To that end, approximately 10 mg of each compound was weighed on a high-precision balance and dispensed into a 1.5 mL microfuge tube.
# [5] = 5% D-mannitol
# Protocol: as §1
# [6] = 1.0 mg/mL in water
# Protocol: Five aliquots of each compound were prepared by dissolving them to 1.0 mg/mL in HPLC grade water (Fisher Scientific, USA). A total of 2 aliquots of the solution were placed in a 37°C stability chamber, and 2 aliquots were placed in a 50°C chamber. Samples were collected on days 0, 2 and 7, centrifuged at 12,000 x g for 5 min, and the supernatants were transferred to a fresh tube. Each sample was diluted 1:4 with 0.05% trifluoroacetic acid (TFA) and the purity and quantity were analyzed by HPLC as described above.
# [7] = FaSSIF with trypsin/chymotrypsin
# Protocol: FaSSIF was supplemented with 2% pancreatin (w/v), 6 μg/mL of trypsin and 6 μg/mL of α-chymotrypsin and was prepared as previously reported [22]. All proteases were from Fisher ScientificSamples were collected at the same frequency as in the FaSSGF study, and analyzed using the same method.
# 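Throughout, for Forced degradation Δ Conc: purity and concentration determined by HPLC on aqueous solutions kept in a stability chamber, with samples analyzed at day 0 and after incubation.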
# 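Throughout, for Forced degradation Δ Purity: purity and concentration determined by HPLC on aqueous solutions kept in a stability chamber, with samples analyzed at day 0 and after incubation.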
Molecule,solubility [4],Forced degradation Δ Conc ([6]; 2 Days at 37°C),Forced degradation Δ Purity ([6]; 2 Days at 37°C),Forced degradation Δ Conc ([6]; 2 Days at +50°C),Forced degradation Δ Purity ([6]; 2 Days at +50°C),Forced degradation Δ Conc ([6]; 7 Days at 37°C),Forced degradation Δ Purity ([6]; 7 Days at 37°C),Forced degradation Δ Conc ([6]; 7 Days at +50°C),Forced degradation Δ Purity ([6]; 7 Days at +50°C),MIC 50 (C. difficile [3]),MIC 90 (C. difficile [3]),MIC Mode (C. difficile [3]),MIC Range (C. difficile [3]),Minimum Inhibitory Concentration C. difficile 103-1 (C. difficile [3]),Minimum Inhibitory Concentration C. difficile 107-1 (C. difficile [3]),Minimum Inhibitory Concentration C. difficile ATCC 9689 (C. difficile [3]),Minimum Inhibitory Concentration C. difficile ATCC 43597 (C. difficile [3]),Minimum Inhibitory Concentration C. difficile ATCC BAA-1805 (C. difficile [3]),Minimum Inhibitory Concentration C. difficile ATCC BAA-1808 (C. difficile [3]),Minimum Inhibitory Concentration C. difficile ATCC BAA-1874 (C. difficile [3]),further results
CCc1c(Cl)c(O)c(Cl)c(O)c1C(=O)O[C@H]1[C@H](O)[C@H](OC)[C@H](OC/C2=C\C=C\C[C@H](O)/C(C)=C/[C@H](CC)[C@@H](O[C@@H]3OC(C)(C)[C@@H](OC(=O)C(C)C)[C@H](O)[C@@H]3O)/C(C)=C/C(C)=C/C[C@@H]([C@@H](C)O)OC2=O)O[C@@H]1C [fidaxomycin],,,,,,,,,,,,,,,,,,,,,solubility in water [1]: 0.0125 mg/mL
"gallidermin (IASKFLCTPGCAKTGSFNSYCC; also: lantibiotic (lanthionine rings and dehydro residues not given here); UniProt P21838 31-52, looked up) [lantibiotic / cationic antimicrobial peptide]",,,,,,,,,,,,,,,,,,,,,MIC increase of C. difficile (C. difficile [2]; cpr induction in vitro): 2–4 fold; MIC of C. difficile (C. difficile [2]; level reached after MIC increase (cpr induction)): ~ 1 μg/ml
"CN[C@H](CC(C)C)C(=O)N[C@H]1C(=O)N[C@@H](CC(N)=O)C(=O)N[C@H]2C(=O)N[C@H]3C(=O)N[C@H](C(=O)N[C@H](C(=O)O)c4cc(O)cc(O)c4-c4cc3ccc4O)[C@H](O)c3ccc(c(Cl)c3)Oc3cc2cc(c3O[C@@H]2O[C@H](CO)[C@@H](O)[C@H](O)[C@H]2O[C@H]2C[C@](C)(N)[C@H](O)[C@H](C)O2)Oc2ccc(cc2Cl)[C@H]1O [Vancomycin, reference compound]",,,,,,,,,,,,,,,,,,,,,"survival (C. difficile UNT103-1; 20 mg/kg oral gavage x 5 days (test compounds TID, vancomycin QD), outcome of the study (Day 21)): 83%; C. difficile spore count of cecal samples (C. difficile UNT103-1; 20 mg/kg oral gavage x 5 days, cecal contents at death or Day 21): 2.96 log10 CFU/mL; spore counts compared to control (vehicle-treated) animals (C. difficile UNT103-1; cecal contents at death or Day 21): significantly lower; Minimum Inhibitory Concentration C. difficile Range (C. difficile [3]; 8 C. difficile strains): 0.5 to 4 mg/mL; MIC 50 (C. difficile [3]; Clostridioides difficile): 0.5 mg/L; MIC 90 (C. difficile [3]; Clostridioides difficile): 4 mg/L; MIC Range (C. difficile [3]; panel of C. difficile strains, n = 8): 0.5 to 4 mg/L"
C=C1NC(=O)[C@H](Cc2c[nH]c3ccccc23)NC(=O)[C@H](NC(=O)[C@H](CCCCN)NC(=O)[C@@H](N)[C@@H](C)CC)CSC[C@@H](C(=O)N[C@H]2C(=O)N3CCC[C@H]3C(=O)NCC(=O)N[C@H](C(=O)N[C@@H](C)C(=O)N[C@@H](CC(=O)O)C(=O)N/C(=C\C)C(=O)NCC(=O)N[C@@H]3CSC[C@@H]4NC(=O)[C@H](Cc5ccc(O)cc5)NC(=O)[C@@H](CS/C=C\NC4=O)NC(=O)[C@H](CC(N)=O)NC(=O)[C@H](Cc4ccccc4)NC3=O)CS[C@H]2C)NC(=O)[C@H](CC(C)C)NC1=O [OG703],7 mg/mL,-9.2% and -9%,-0.97%,-15%,-1.74%,-13.4% and -13%,-1.04%,-30.3% and -30%,-4.79%,1 mg/L,2 mg/L,1 mg/L,0.5 to 2 mg/L,0.5 µg/mL,2 µg/mL,2 µg/mL,1 µg/mL,1 µg/mL,1 µg/mL,0.5 µg/mL,solubility reduced relative to OG706 [5]: 2-3 fold; Minimum Inhibitory Concentration C. difficile ATCC BAA-1875 (C. difficile [3]): 1 µg/mL
C=C1NC(=O)[C@H](Cc2c[nH]c3ccccc23)NC(=O)[C@H](NC(=O)[C@H](CCCCN)NC(=O)[C@@H](N)[C@@H](C)CC)CSC[C@@H](C(=O)N[C@H]2C(=O)N3CCC[C@H]3C(=O)NCC(=O)N[C@H](C(=O)N[C@@H](C)C(=O)N[C@@H](C)C(=O)N/C(=C\C)C(=O)NCC(=O)N[C@@H]3CSC[C@@H]4NC(=O)[C@H](Cc5ccc(O)cc5)NC(=O)[C@@H](CS/C=C\NC4=O)NC(=O)[C@H](CC(N)=O)NC(=O)[C@H](Cc4ccccc4)NC3=O)CS[C@H]2C)NC(=O)[C@H](CC(C)C)NC1=O [OG711],12 to 18 mg/mL,-12.5% and -13%,-1.24%,-8.7% and -9%,-0.61%,-10.8% and -11%,-0.63%,-40.1% and -40%,-2.94%,0.5 mg/L,1 mg/L,0.25 mg/L,0.25 to 1 mg/L,0.25 µg/mL,1 µg/mL,1 µg/mL,0.5 µg/mL,0.25 µg/mL,0.25 µg/mL,0.5 µg/mL,improvement in half-life in FaSSIF (stability to proteolytic degradation) relative to OG253 [7]: > 50 fold; Minimum Inhibitory Concentration C. difficile ATCC BAA-1875 (C. difficile [3]): 0.5 µg/mL
